Results taken from article PMC6691788, “Design and synthesis of phthalazine-based compounds as potent anticancer agents with potential antiangiogenic activity via VEGFR-2 inhibition” (Journal of Enzyme Inhibition and Medicinal Chemistry, 2019).

Columns and labels:
NCI/ADR-RES = assay: NCI 60 cell panel SRB screen; assay type: cell-based; conditions: Homo sapiens, single dose 10 μM, read-out: percent cell growth promotion
SK-OV-3 = assay: NCI 60 cell panel SRB screen; assay type: cell-based; conditions: Homo sapiens; SK-OV-3, single dose 10 μM; read-out: percent cell growth promotion
SK-MEL-28 = assay: NCI 60 cell panel SRB screen; assay type: cell-based; conditions: Homo sapiens, SK-MEL-28, read-out: percent cell growth promotion
RXF 393 = assay: NCI 60 cell panel SRB screen; assay type: cell-based; conditions: Homo sapiens; RXF 393, single dose 10 μM; read-out: percent cell growth promotion
SN12C = assay: NCI 60 cell panel SRB screen; assay type: cell-based; conditions: Homo sapiens, single dose 10 μM, read-out: percent cell growth promotion
ACHN = assay: NCI 60 cell panel SRB screen; assay type: cell-based; conditions: Homo sapiens, single dose 10 μM, read-out: percent cell growth promotion
HL-60(TB) = assay: NCI 60 cell panel SRB screen; assay type: cell-based; conditions: Homo sapiens, single dose 10 μM, read-out: percent cell growth promotion
NCI-H460 = assay: NCI 60 cell panel SRB screen; assay type: cell-based; conditions: Homo sapiens; NCI-H460, single dose 10 μM; read-out: percent cell growth promotion
U251 = assay: NCI 60 cell panel SRB screen; assay type: cell-based; conditions: Homo sapiens, U-251; U251, single dose 10 μM; read-out: percent cell growth promotion
IGROV1 = assay: NCI 60 cell panel SRB screen; assay type: cell-based; conditions: Homo sapiens, IGROV-1; IGROV1, single dose 10 μM; read-out: percent cell growth promotion
full NCI 60 cell panel = assay: NCI 60 cell panel SRB screen, whole panel; assay type: cell-based, human; conditions: for activity at 10 µM: Homo sapiens, 60 cell, mean over the panel, single dose 10 μM, read-out: Mean percent cell growth promotion; for cell growth inhibition, in words: single dose 10 µM
Source text: Aiming to evaluate the general antitumour activity of the synthesised phthalazines, the structures of the final compounds were submitted to National Cancer Institute “NCI” (www.dtp.nci.nih.gov), Bethesda, Maryland, USA. In vitro NCI anticancer screening involves two-stage process, the first stage started with the evaluation of the selected candidates against the full NCI 60 cell lines panel representing leukaemia, non-small cell lung cancer, melanoma, colon, CNS, breast, ovarian, renal and prostate cancers at a single dose of 10 µM. NCI selection is based on degree of structure variation and application of computer modelling techniques to prioritise compounds based on their ability to add diversity to the NCI small molecule compound collection.
Eight compounds (6b, 6e, 7b, 13a, 13c, 16a, 16d and 17a) were selected by NCI for further 5 log dose screening against full NCI 60 cell panel. All the 60 cell lines, representing nine tumour subpanels (leukaemia, non-small cell lung cancer, colon cancer, CNS cancer, prostate cancer, melanoma, ovarian cancer, renal cancer and breast cancer) which were incubated at five different concentrations (0.01, 0.1, 1, 10 and 100 µM) of each of the test compounds. The outcomes were used to create log concentration vs % growth inhibition curves, then three response parameters (GI50, TGI and LC50) were calculated for each cell line, (Tables S4 and S5 in Supplementary material).
The human tumor cell lines of the cancer-screening panel were grown in RPMI 1640 medium containing 5% fetal bovine serum and […] L-glutamine. For a typical screening experiment, cells are inoculated into 96 well microtiter plates in 100 ml at plating densities ranging from 5000 to 40,000 cells/well depending on the doubling time of individual cell lines. After cell inoculation, the microtiter plates are incubated at 37 °C, 5% CO2, 95% air and 100%
relative humidity for 24 h prior to addition of experimental drugs. After 24 h, two plates of each cell line are fixed in situ with TCA, to represent a measurement of the cell population for each cell line at the time of drug addition (Tz). Experimental drugs are dissolved in dimethyl sulfoxide at 400-fold the desired final maximum test concentration and stored frozen prior to use. At the time of drug addition, an aliquot of frozen concentrate is thawed and diluted to twice the desired final maximum test concentration with complete medium containing […] Gentamicin. Additional four, 10-fold or ½log serial dilutions are made to provide a total of five drug concentrations plus control. Aliquots of […] of these different drug dilutions are added to the appropriate microtiter wells already containing 100 ml of medium, resulting in the required final drug concentrations. Following drug addition, the plates are incubated for an additional 48 h at 37 °C, 5% CO2, 95% air, and 100% relative humidity. For adherent cells, the assay is terminated by the addition of cold TCA. Cells are fixed in situ by the gentle addition of […] of cold 50% (w/v) TCA (final concentration,10% TCA) and incubated for 60 min at 4 °C. The supernatant is discarded, and the plates are washed five times with tap water and air dried. Sulforhodamine B (SRB) solution (100 ml) at 0.4% (w/v) in 1% acetic acid is added to each well, and plates are incubated for 10 min at room temperature. After staining, unbound dye is removed by washing five times with 1% acetic acid and the plates are air dried. Bound stain is subsequently dissolved with 10 μM trizma base, and the absorbance is read on an automated plate reader at a wavelength of 515 nm. For suspension cells, the methodology is the same except that the assay is terminated by fixing settled cells at the bottom of the wells by gently adding […] of 80% TCA (final concentration, 16% TCA). […]

NCI-H23 = assay: NCI 60 cell panel SRB screen; assay type: cell-based; conditions: Homo sapiens; NCI-H23, single dose 10 μM; read-out: percent cell growth promotion
CAKI-1 = assay: NCI 60 cell panel SRB screen; assay type: cell-based, human; conditions: Homo sapiens; CAKI-1, single dose 10 μM; read-out: percent cell growth promotion
NCI-H226 = assay: NCI 60 cell panel SRB screen; assay type: cell-based; conditions: Homo sapiens; NCI-H226, single dose 10 μM; read-out: percent cell growth promotion
SNB-19 = assay: NCI 60 cell panel SRB screen; assay type: cell-based; conditions: Homo sapiens; SNB-19, single dose 10 μM; read-out: percent cell growth promotion
T-47D = assay: NCI 60 cell panel SRB screen; assay type: cell-based; conditions: Homo sapiens, T47D, read-out: percent cell growth promotion
OVCAR-5 = assay: NCI 60 cell panel SRB screen; assay type: cell-based; conditions: Homo sapiens; OVCAR-5, single dose 10 μM; read-out: percent cell growth promotion
PC-3 = assay: NCI 60 cell panel SRB screen; assay type: cell-based; conditions: Homo sapiens; PC-3, single dose 10 μM; read-out: percent cell growth promotion
SNB-75 = assay: NCI 60 cell panel SRB screen; assay type: cell-based; conditions: Homo sapiens; SNB-75, single dose 10 μM; read-out: percent cell growth promotion

| Structure (SMILES) | activity at 10 µM (NCI/ADR-RES) | activity at 10 µM (SK-OV-3) | activity at 10 µM (SK-MEL-28) | activity at 10 µM (RXF 393) | activity at 10 µM (SN12C) | activity at 10 µM (ACHN) | activity at 10 µM (HL-60(TB)) | activity at 10 µM (NCI-H460) | activity at 10 µM (U251) | activity at 10 µM (IGROV1) | activity at 10 µM (full NCI 60 cell panel) | cell growth inhibition, in words (full NCI 60 cell panel) | activity at 10 µM (NCI-H23) | activity at 10 µM (CAKI-1) | activity at 10 µM (NCI-H226) | activity at 10 µM (SNB-19) | activity at 10 µM (T-47D) | activity at 10 µM (OVCAR-5) | activity at 10 µM (PC-3) | activity at 10 µM (SNB-75) |
| --- | --- | --- | --- | --- | --- | --- | --- | --- | --- | --- | --- | --- | --- | --- | --- | --- | --- | --- | --- | --- |
| Cc1nnc(Oc2ccc(NC(=O)Nc3ccc(Cl)cc3)cc2)c2ccccc12 [Compound 7e, 1–(4-Chlorophenyl)-3–(4-(4-methylphthalazin-1-yloxy)phenyl)urea] | 72.8% | 69.5% | 88.3% | 82% | 79.1% | 80.7% | 80.1% | 78.2% | 60% | 90.9% | 72.8% | moderate cell growth inhibition against leukaemia and breast cell lines | 84.9% | 79.7% | 79.1% | 84.1% | 57.9% | 119% | 39% | 47.3% |
| CCOC(=O)N1CCN(c2nncc3ccccc23)CC1 [Compound 8a, Ethyl 4-(phthalazin-1-yl)piperazine-1-carboxylate] | 102% | 105% | 116% | 102% | 110% | 115% | 108% | 105% | 99.3% | 120% | 105% | nor the piperazines (8a, 8d, 8f, 8g, 8h and 8i) showed any significant cell line growth inhibition | 105% | 96.1% | 100% | 103% | 100% | 128% | 92.6% | 104% |
| c1ccc(N2CCN(c3nncc4ccccc34)CC2)nc1 [Compound 8d, 1–(4-(Pyridin-2-yl)piperazin-1-yl)phthalazine] | 109% | 104% | 108% | 108% | 102% | 115% | 96.6% | 108% | 96.9% | 116% | 104% | nor the piperazines (8a, 8d, 8f, 8g, 8h and 8i) showed any significant cell line growth inhibition | 105% | 109% | 98.1% | 113% | 101% | 105% | 101% | 105% |
| CCOC(=O)N1CCN(c2nnc(C)c3ccccc23)CC1 [Compound 8f, Ethyl 4–(4-methylphthalazin-1-yl)piperazine-1-carboxylate] | 109% | 101% | 113% | 108% | 101% | 107% | 114% | 104% | 96% | 109% | 101% | nor the piperazines (8a, 8d, 8f, 8g, 8h and 8i) showed any significant cell line growth inhibition | 104% | 90.3% | 103% | 107% | 87.2% | 95% | 101% | 101% |
